The compounds below were run against T1, C-X-C chemokine receptor type 3 (Homo sapiens, UniProt P49682) (assay: Inhibitory concentration against […] expressed in human HEK293 cells using [125I]CXCL10 as radioligand).
T1 sequence (P49682 whole entry): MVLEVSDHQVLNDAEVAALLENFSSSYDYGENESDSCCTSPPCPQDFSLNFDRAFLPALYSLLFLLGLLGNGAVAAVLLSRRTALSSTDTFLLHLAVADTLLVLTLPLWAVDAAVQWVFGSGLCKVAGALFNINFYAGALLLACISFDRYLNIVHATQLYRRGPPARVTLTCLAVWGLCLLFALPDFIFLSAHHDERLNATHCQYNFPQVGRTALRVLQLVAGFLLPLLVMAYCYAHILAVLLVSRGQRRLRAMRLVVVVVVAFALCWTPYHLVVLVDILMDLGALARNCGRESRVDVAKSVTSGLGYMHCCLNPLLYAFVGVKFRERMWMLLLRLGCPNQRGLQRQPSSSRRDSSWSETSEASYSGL
Format: cell-based

IC50 | Compound
3.1 µM | CCCCCCCCCC(=O)N(CCN(C)C)C(C)c1nc2ccccc2c(=O)n1-c1ccc(C)cc1 (centres undefined)
3.2 µM | CCCCCCCCCC(=O)N(CCN(C)C)C(C)c1nc2ccccc2c(=O)n1-c1ccc(F)cc1 (centres undefined)
> 100 µM | CCCCCCCCCC(=O)N(CCN(C)C)C(C)c1nc2ccccc2c(=O)n1-c1ccc(O)cc1 (centres undefined)

The next lines start with the compound.

Compound | IC50
CCCCCCCCCC(=O)N(CCN(C)C)C(C)c1nc2ccccc2c(=O)n1-c1cccc(C#N)c1 (centres undefined) | 5.8 µM
CCCCCCCCCC(=O)N(CCN(C)C)C(C)c1nc2ccccc2c(=O)n1-c1ccc(C#N)cc1 (centres undefined) | 0.93 µM
CCCCCCCCCC(=O)N(CCN(C)C)C(C)c1nc2ccccc2c(=O)n1-c1ccc(OC)cc1 (centres undefined) | 3.3 µM
CCCCCCCCCC(=O)N(CCN(C)C)C(C)c1nc2ccccc2c(=O)n1-c1ccccc1C#N (centres undefined) | 10 µM
CCCCCCCCCC(=O)N(CCN(C)C)C(C)c1nc2ccccc2c(=O)n1-c1ccc(C(F)(F)F)cc1 (centres undefined) | > 100 µM
CCCCCCCCCC(=O)N(CCN(C)C)C(C)c1nc2ccccc2c(=O)n1-c1ccccc1 (centres undefined) | 15 µM
